In patent publication US11596639B2, “Substituted indole Mcl-1 inhibitors” (Vanderbilt University, priority 2016, dated 2023):
Where two headings read alike, the source gives them in different places.

Legend:
[1] = tested on: H929 human cancer cell lines; assay: Cellular viability / proliferation (Cell TiterGlo, 72 h); format: cell-based
In short: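 1,000 cells/well, 10% FBS medium; compound added at 24 h, 2-fold dilutions from 50 μM top, DMSO <1% final. 72 h exposure, CellTiterGlo 30 min RT dark, luminescence read. IC50 by 4-parameter fit.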

[2] = biological target: Mcl-1 (Homo sapiens (Human), UniProt Q07820); assay: TR-FRET binding assay, FITC-Bak peptide and MBP-tagged Mcl-1; settings: read-out: Ki for Inhibition of Mcl-1 by TR-FRET assay
Mcl-1, sequence (Q07820 172-327): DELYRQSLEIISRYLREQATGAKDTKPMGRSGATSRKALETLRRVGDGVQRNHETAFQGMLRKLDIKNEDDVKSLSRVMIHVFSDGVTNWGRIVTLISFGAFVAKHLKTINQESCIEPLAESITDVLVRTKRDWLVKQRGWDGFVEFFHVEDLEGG
Description: Compounds are diluted in DMSO in a 16-point, semilog serial dilution scheme. […] The plate was mixed and incubated for 3 hours at room temperature. […] TR-FRET signal is plotted and IC50 and Ki values are calculated in the same manner as the fluorescence polarization anisotropy based competition assays.

[3] = Homo sapiens, NCI-H929, 72 h, read-out: GI50 on cellular proliferation of H929 human cancer cell lines, H929 cells, 72 h, Cell TiterGlo, 10% FBS

Row | SMILES | GI50 [1, 3] | Ki [2] | GI50 ([1]; H929 cells, 72 h, Cell TiterGlo, 10% FBS, read-out: GI50 on cellular proliferation of H929 human cancer cell lines)
1 | COCCOc1cc(N2C[C@@H](C)n3c(c(CCCOc4cc(C)c(Cl)c(C)c4)c4ccc(Cl)c(-c5c(C)ncnc5C)c43)C2=O)c2c(c1)cc(C(=O)O)n2Cc1cccc(C)n1 [Example 571, (R)-7-(7-chloro-10-(3-(4-chloro-3,5-dimethylphenoxy)propyl)-6-(4,6-dimethylpyrimidin-5-yl)-4-methyl-1-oxo-3,4-dihydropyrazino[1,2-a]indol-2(1H)-yl)-5-(2-methoxyethoxy)-1-((6-methylpyridin-2-yl)methyl)-1H-indole-2-carboxylic acid] | < 0.2 µM | < 0.0002 µM | –
2 | COCCN(C)c1cc(N2C[C@@H](C)n3c(c(CCCOc4cc(C)c(Cl)c(C)c4)c4ccc(Cl)c(-c5c(C)nn(C)c5C)c43)C2=O)c2c(c1)cc(C(=O)O)n2C [Example 682, (R)-7-(7-chloro-10-(3-(4-chloro-3,5-dimethylphenoxy)propyl)-4-methyl-1-oxo-6-(1,3,5-trimethyl-1H-pyrazol-4-yl)-3,4-dihydropyrazino[1,2-a]indol-2(1H)-yl)-5-((2-methoxyethyl)(methyl)amino)-1-methyl-1H-indole-2-carboxylic acid] | 0.34 µM | < 0.0002 µM | –
3 | Cc1cc(OCCCc2c3n(c4c(-c5c(C)nn(C)c5C)c(Cl)ccc24)[C@H](C)CN(c2cn(Cc4ccccn4)c4ccc(C(=O)O)cc24)C3=O)cc(C)c1Cl [Example 561, (R)-3-(7-chloro-10-(3-(4-chloro-3,5-dimethylphenoxy)propyl)-4-methyl-1-oxo-6-(1,3,5-trimethyl-1H-pyrazol-4-yl)-3,4-dihydropyrazino[1,2-a]indol-2(1H)-yl)-1-(pyridin-2-ylmethyl)-1H-indole-5-carboxylic acid] | 0.51 µM | < 0.0002 µM | –
4 | COCCOc1cc(N2C[C@@H](C)n3c(c(CCCOc4cc(C)c(Cl)c(C)c4)c4ccc(Cl)c(-c5c(C)ncnc5C)c43)C2=O)c2c(c1)cc(C(=O)O)n2C [Example 539, (R)-7-(7-Chloro-10-(3-(4-chloro-3,5-dimethylphenoxy)propyl)-6-(4,6-dimethylpyrimidin-5-yl)-4-methyl-1-oxo-3,4-dihydropyrazino[1,2-a]indol-2(1H)-yl)-5-(2-methoxyethoxy)-1-methyl-1H-indole-2-carboxylic acid] | < 0.2 µM | < 0.0002 µM | –
5 | Cc1cc(OCCCc2c3n(c4c(-c5c(C)nn(C)c5C)c(Cl)ccc24)[C@H](C)CN(c2cccc4c(C(=O)O)ccnc24)C3=O)cc(C)c1Cl [Example 661, (R)-8-(7-chloro-10-(3-(4-chloro-3,5-dimethylphenoxy)propyl)-4-methyl-1-oxo-6-(1,3,5-trimethyl-1H-pyrazol-4-yl)-3,4-dihydropyrazino[1,2-a]indol-2(1H)-yl)quinoline-4-carboxylic acid] | 2.4 µM | 0.00023 µM | –
6 | Cc1cc(OCCCc2c3n(c4c(-c5c(C)nn(C)c5C)c(Cl)ccc24)[C@H](C)CN(c2cc(C(=O)N4CCOCC4)cc4cc(C(=O)O)n(C)c24)C3=O)cc(C)c1Cl [Example 591, (R)-7-(7-chloro-10-(3-(4-chloro-3,5-dimethylphenoxy)propyl)-4-methyl-1-oxo-6-(1,3,5-trimethyl-1H-pyrazol-4-yl)-3,4-dihydropyrazino[1,2-a]indol-2(1H)-yl)-1-methyl-5-(morpholine-4-carbonyl)-1H-indole-2-carboxylic acid] | 2.8 µM | < 0.0002 µM | –
7 | Cc1cc(N2C[C@@H](C)n3c(c(CCCOc4cc(C)c(Cl)c(C)c4)c4ccc(Cl)c(-c5c(C)nn(C)c5C)c43)C2=O)c2c(c1)cc(C(=O)O)n2Cc1cccc(N2CCN(C)CC2)n1 [Example 516, (R)-7-(7-Chloro-10-(3-(4-chloro-3,5-dimethylphenoxy)propyl)-4-methyl-1-oxo-6-(1,3,5-trimethyl-1H-pyrazol-4-yl)-3,4-dihydropyrazino[1,2-a]indol-2(1H)-yl)-5-methyl-1-((6-(4-methylpiperazin-1-yl)pyridin-2-yl)methyl)-1H-indole-2-carboxylic acid] | 0.33 µM | < 0.0002 µM | –
8 | Cc1cc(OCCCc2c3n(c4c(-c5c(C)nn(C)c5C)c(Cl)ccc24)[C@H](C)CN(c2cc(N(C)C(=O)[C@H](C)N(C)C)cc4c(C(=O)O)cn(C)c24)C3=O)cc(C)c1Cl [Example 608, 7-((R)-7-chloro-10-(3-(4-chloro-3,5-dimethylphenoxy)propyl)-4-methyl-1-oxo-6-(1,3,5-trimethyl-1H-pyrazol-4-yl)-3,4-dihydropyrazino[1,2-a]indol-2(1H)-yl)-5-((S)-2-(dimethylamino)-N-methylpropanamido)-1-methyl-1H-indole-3-carboxylic acid] | 304 µM | 0.00091 µM | –
9 | Cc1cc(N2C[C@@H](C)n3c(c(CCCOc4cc(C)c(Cl)c(C)c4)c4ccc(Cl)c(-c5c(C)nn(C)c5C)c43)C2=O)c2c(c1)cc(C(=O)O)n2CC(=O)N1CCOCC1 [Example 598, (R)-7-(7-chloro-10-(3-(4-chloro-3,5-dimethylphenoxy)propyl)-4-methyl-1-oxo-6-(1,3,5-trimethyl-1H-pyrazol-4-yl)-3,4-dihydropyrazino[1,2-a]indol-2(1H)-yl)-5-methyl-1-(2-morpholino-2-oxoethyl)-1H-indole-2-carboxylic acid] | 1.9 µM | < 0.0002 µM | –
10 | COCCOc1cc(N2C[C@@H](C)n3c(c(CCCOc4cc(C)c(Cl)c(C)c4)c4ccc(Cl)c(-c5c(C)nn(C)c5C)c43)C2=O)c2c(c1)cc(C(=O)O)n2Cc1cccc(C)n1 [Example 540, (R)-7-(7-Chloro-10-(3-(4-chloro-3,5-dimethylphenoxy)propyl)-4-methyl-1-oxo-6-(1,3,5-trimethyl-1H-pyrazol-4-yl)-3,4-dihydropyrazino[1,2-a]indol-2(1H)-yl)-5-(2-methoxyethoxy)-1-((6-methylpyridin-2-yl)methyl)-1H-indole-2-carboxylic acid] | < 0.2 µM | < 0.0002 µM | –
11 | COCCOCCOc1cc(N2C[C@@H](C)n3c(c(CCCOc4cc(C)c(Cl)c(C)c4)c4ccc(Cl)c(-c5c(C)nn(C)c5C)c43)C2=O)c2c(c1)cc(C(=O)O)n2C [Example 633, (R)-7-(7-chloro-10-(3-(4-chloro-3,5-dimethylphenoxy)propyl)-4-methyl-1-oxo-6-(1,3,5-trimethyl-1H-pyrazol-4-yl)-3,4-dihydropyrazino[1,2-a]indol-2(1H)-yl)-5-(2-(2-methoxyethoxy)ethoxy)-1-methyl-1H-indole-2-carboxylic acid] | – | < 0.0002 µM | < 0.2 µM
12 | Cc1cc(OCCCc2c3n(c4c(-c5c(C)nn(C)c5C)c(Cl)ccc24)[C@H](C)CN(c2cccc4c(C(=O)O)c5n(c24)CCN(C)C5=O)C3=O)cc(C)c1Cl [Example 562, (R)-7-chloro-10-(3-(4-chloro-3,5-dimethylphenoxy)propyl)-2′,4-dimethyl-1,1′-dioxo-6-(1,3,5-trimethyl-1H-pyrazol-4-yl)-1′,2′,3,3′,4,4′-hexahydro-1H-[2,6′-bipyrazino[1,2-a]indole]-10′-carboxylic acid] | 1.2 µM | 0.00097 µM | –
13 | Cc1cc(OCCCc2c3n(c4c(-c5c(C)nn(C)c5C)c(Cl)ccc24)[C@H](C)CN(c2cc(NCc4ccccn4)cc4c(C(=O)O)cn(C)c24)C3=O)cc(C)c1Cl [Example 523, (R)-7-(7-Chloro-10-(3-(4-chloro-3,5-dimethylphenoxy)propyl)-4-methyl-1-oxo-6-(1,3,5-trimethyl-1H-pyrazol-4-yl)-3,4-dihydropyrazino[1,2-a]indol-2(1H)-yl)-1-methyl-5-((pyridin-2-ylmethyl)amino)-1H-indole-3-carboxylic acid] | 0.89 µM | 0.0005 µM | –
